For this assay, the target named is T1, CAIX (Homo sapiens, UniProt Q16790).
T1 construct: gene CA9; hCAIX expressed in Xenopus oocytes; with rMCT4 (coexpressed)
In words: inhibition of CAIX-mediated increase in MCT4 transport (intracellular H+ microelectrodes, Xenopus oocytes). It counts as cell-based.

As a reminder, the IC50 is the concentration at which inhibition is half-maximal. A low value points to inhibition by little substance. `O=C1NS(=O)(=O)c2cc(-n3cc(CCO[C@H]4O[C@@H](CO)[C@@H](O)[C@H](O)[C@@H]4O)nn3)ccc21` [BGal2C, Beta-Galactose-2C] came in with an IC50 of 89.9 ± 5.6 nM.

Values taken from publication PMC11593560 (International Journal of Molecular Sciences, 2024).
